According to patent publication US10870872B2, “Enzymatic nucleic acid synthesis” (President and Fellows of Harvard College, priority 2016, dated 2020):

Legend:
TdT [1] = target: T1, TdT (Homo sapiens, UniProt P04053); experiment: Screen of nucleotide analogue substrates for TdT-based DNA synthesis (NPU formulation with Apyrase); type: biochemical; settings: for efficiency as substrate of TdT versus natural counterpart: analogues more positively charged than natural counterparts; for behavior with respect to TdT-based DNA synthesis (extension efficiency, rate, extension length distribution): natural nucleotides
Text: In the general scheme of the presently disclosed methods, the distribution of extension length by TdT is important to ensure efficient and reliable encoding of information into DNA. […] The following nucleotide analogues with the NPU formulation which included Apyrase were explored.

TdT [2] = target: T1, TdT; experiment: Chemical control of TdT extension by Apyrase on immobilized initiator oligo (PCR, agarose gel); type: biochemical; settings: 0.001 U/μL Apyrase, 1 U/μL TdT, 4 minutes at room temperature
Method: According to an exemplary protocol of the present disclosure, an initiator oligonucleotide was first immobilized onto a surface, for example with the use of a 5 prime modified oligonucleotide onto aldehyde functionalized glass slides. After tethering the initiator to a solid support, the surface was treated to neutralize the chemical reactive groups such as aldehydes in this case, and to increase hydrophobicity.
Dilutions of nucleotides in solvents such as water or ethanol of the following concentration and types were prepared:
Each of these nucleotides were printed on an oligo spot with a liquid handling robot followed by printing of the enzymatic mix comprising TdT (Terminal deoxynucleotidyl transferase) and Apyrase. […]
Each of the synthesized DNA strands were released off the solid-support surface, in this exemplary embodiment, enzymatically, by the use of USER (Uracil-Specific Excision Reagent) enzyme which cleaves the uracils that are near the 5 prime distal end of the initial initiator oligonucleotide. These strands were subsequently PCR amplified and the number of synthesized nucleotides were evaluated by two methods: electrophoresis on agarose or PAGE gels for cursory bulk analysis and sequenced with next-generation sequencing platforms such as Illumina, Pacific Bioscience, and/or Oxford Nanopore for quantitative single-molecule analysis. […]

T1 sequence (P04053 whole entry, species assumed): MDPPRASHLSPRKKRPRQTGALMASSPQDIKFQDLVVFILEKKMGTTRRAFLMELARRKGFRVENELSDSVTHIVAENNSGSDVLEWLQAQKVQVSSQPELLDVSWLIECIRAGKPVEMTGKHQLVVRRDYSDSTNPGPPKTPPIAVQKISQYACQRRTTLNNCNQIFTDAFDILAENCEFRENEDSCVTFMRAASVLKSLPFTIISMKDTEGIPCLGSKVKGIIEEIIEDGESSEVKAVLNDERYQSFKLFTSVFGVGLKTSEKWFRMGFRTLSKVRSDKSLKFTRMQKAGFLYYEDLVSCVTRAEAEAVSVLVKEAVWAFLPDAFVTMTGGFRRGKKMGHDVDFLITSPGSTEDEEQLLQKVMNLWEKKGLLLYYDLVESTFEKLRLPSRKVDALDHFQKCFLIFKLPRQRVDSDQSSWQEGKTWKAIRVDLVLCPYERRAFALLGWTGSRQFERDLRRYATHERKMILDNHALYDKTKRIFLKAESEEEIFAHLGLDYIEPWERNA

Row | Molecule | efficiency as substrate of TdT versus natural counterpart (TdT [1]) | behavior with respect to TdT-based DNA synthesis (extension efficiency, rate, extension length distribution) (TdT [1]) | other results
1 | Nc1ncnc2c1ncn2[C@H]1C[C@H](O)[C@@H](COP(=O)(O)OP(=O)(O)OP(=O)(O)O)O1 [dATP] |  | poorest behavior | 
2 | Nc1ccn([C@H]2C[C@H](O)[C@@H](COP(=O)(O)OP(=O)(O)OP(=O)(O)O)O2)c(=O)n1 [dCTP] |  | most optimal behavior | 
3 | Cc1cn([C@H]2C[C@H](O)[C@@H](COP(=O)(O)OP(=O)(O)OP(=O)(O)O)O2)c(=O)[nH]c1=O [dTTP] |  | poorest behavior | 
4 | Apyrase |  |  | effect on average amount of extension by TdT (TdT [2]): effectively limited the average amount of extension by TdT

The next lines start with results.

Row | efficiency as substrate of TdT versus natural counterpart (TdT [1]) | behavior with respect to TdT-based DNA synthesis (extension efficiency, rate, extension length distribution) (TdT [1]) | Molecule | other results
5 | far more efficient substrates of TdT |  | NC/C=C/c1cn(C2CC(O)C(COP(=O)(O)OP(=O)(O)OP(=O)(O)O)O2)c(=O)[nH]c1=O (stereo not drawn) [5-Aminoallyl-dUTP] | 
6 | far more efficient substrates of TdT |  | NCC#Cc1cn(C2CC(O)C(COP(=O)(O)OP(=O)(O)OP(=O)(O)O)O2)c(=O)[nH]c1=O (stereo not drawn) [5-Propargylamino-dUTP] | 
